This note sets out measurements from PMC6161599, “Inhibition of O-acetylserine sulfhydrylase by fluoroalanine derivatives” (Journal of Enzyme Inhibition and Medicinal Chemistry, 2018).

Common to all, as to format: biochemical
Test [1] concerns the target T1, O-acetylserine sulfhydrylase B (OASS-B, CysM) (Salmonella enterica, UniProt P29848).
T1 construct: recombinant STOASS-B, His-tag removed with factor Xa
The test can be described thus: ninhydrin cysteine activity assay; PLP absorbance and fluorescence changes.

For test [2], the target named is T2, O-acetylserine sulfhydrylase A (OASS-A, CysK) (Salmonella enterica, UniProt P0A1E3).
T2 construct: recombinant STOASS-A, His-tag removed with factor Xa
Description: ninhydrin cysteine activity assay; PLP absorbance ([…] to […] nm) and fluorescence changes.

Test [3] addresses T1, O-acetylserine sulfhydrylase B (OASS-B, CysM). Description: ninhydrin cysteine activity assay; inactivation kinetics; PLP absorbance and fluorescence changes.
Test [4] addresses T2, O-acetylserine sulfhydrylase A (OASS-A, CysK). Described as above.

The IC50 is the concentration needed to halve the response being measured.

T1 sequence (P29848 whole entry): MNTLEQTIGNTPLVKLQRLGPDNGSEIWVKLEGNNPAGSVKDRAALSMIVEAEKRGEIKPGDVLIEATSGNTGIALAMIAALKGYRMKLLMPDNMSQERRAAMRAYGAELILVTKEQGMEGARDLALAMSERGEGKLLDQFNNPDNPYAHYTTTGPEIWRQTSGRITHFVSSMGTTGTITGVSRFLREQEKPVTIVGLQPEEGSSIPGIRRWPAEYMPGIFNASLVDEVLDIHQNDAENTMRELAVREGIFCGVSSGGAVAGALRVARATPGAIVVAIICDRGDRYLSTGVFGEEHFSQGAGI
T2 sequence (P0A1E3 2-323): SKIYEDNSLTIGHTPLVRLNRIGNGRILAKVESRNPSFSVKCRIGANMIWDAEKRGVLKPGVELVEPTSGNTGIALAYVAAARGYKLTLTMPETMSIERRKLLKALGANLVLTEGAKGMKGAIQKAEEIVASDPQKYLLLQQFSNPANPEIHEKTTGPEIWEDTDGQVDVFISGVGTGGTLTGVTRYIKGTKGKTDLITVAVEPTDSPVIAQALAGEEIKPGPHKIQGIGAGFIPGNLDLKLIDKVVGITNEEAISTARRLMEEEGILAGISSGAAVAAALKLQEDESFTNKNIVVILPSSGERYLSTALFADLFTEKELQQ

As for `NC(CF)C(=O)O` (stereo not shown) [F-Ala, monofluoroalanine], the results for the IC50 in test [1] and in test [2] were 1290 ± 230 µM and 480 ± 50 µM, respectively.

For the compound `N[C@H](C(=O)O)C(F)(F)F` [triF-Ala, β,β,β-trifluoroalanine], the figures for the IC50 in test [3] and in test [4] were 940 ± 60 µM and 130 ± 10 µM, respectively.
